We go through 17 compounds from US20260042764A1, “COMPOSITIONS AND METHODS FOR INHIBITION OF KRAS” (TheRas, Inc., priority 2022, published 2026).

Bounds are passed on as bounds.

Experiment [1] addresses T1, Avi-KRAS G12D (1-169) GppNHp/RAF1 RBD-3xFLAG (52-151) (Homo sapiens, UniProt P01116, G12D).
T1 construct: Avi-KRAS G12D (1-169)
The experiment is described as follows: Raf1-KRAS G12D-GppNHP disruption HTRF assay (Biological Example 1). Format: binding. Conditions: KRAS G12D, GppNHp-loaded; Table 11. The protocol:
(§1) A protein:protein interaction (PPI) Homogeneous Time Resolved Fluorescence (HTRF) assay was used to determine the effectiveness of compounds of the present disclosure in disrupting KRAS protein and effector RAF1 binding.
(§2) The assay buffer included: 50 mM Tris pH 7.5, 100 mM NaCl, 5 mM MgCl2, 0.1% BSA, 0.01% Tween, and 10% DMSO. The bead buffer included: 50 mM Tris pH 7.5, and 0.01% Tween 20. Assay volume of 20 μL was used in a 384 well plate-low volume format.
(§3) The HTRF assay employed the following protocol:
(§4) Protein mix was prepared in assay buffer, and dispensed on plates, 10 μL per well, then incubated for 1 h at room temperature, with 700 rpm shaking, Reagents mix was prepared and dispensed on plates, 10 μL per well, then incubated for 1 h at room temperature, with 700 rpm shaking.
(§5) Data was reported as percentage of activity, with DMSO as 100%. Data was plotted and analyzed using Prism 8.
Background: In TR-FRET formats the signal depends on donor and acceptor labels being close together.

The target in experiment [2] is T2, Avi-KRAS G12R (1-169) GppNHp/RAF1 RBD-3xFLAG (52-151) (Homo sapiens, UniProt P01116, G12R).
T2 construct: Avi-KRAS G12R (1-169)
T2 sequence (P01116 1-169 isoform P01116-2 G12R): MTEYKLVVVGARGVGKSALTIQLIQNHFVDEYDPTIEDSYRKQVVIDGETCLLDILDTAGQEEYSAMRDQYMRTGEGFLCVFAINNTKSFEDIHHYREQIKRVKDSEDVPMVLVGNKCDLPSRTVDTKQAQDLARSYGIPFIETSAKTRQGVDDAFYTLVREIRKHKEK
Kind of experiment: Raf1-KRAS G12R-GppNHP disruption HTRF assay (Biological Example 1). The class given is binding. As to conditions: KRAS G12R, GppNHp-loaded; Table 11. As for the experimental part:
as §1, §2, §3, §4, §5

Experiment [3] addresses T3, Avi-KRAS G12V (1-169) GppNHp/RAF1 RBD-3xFLAG (52-151) (Homo sapiens, UniProt P01116, G12V).
T3 construct: Avi-KRAS G12V (1-169)
Kind of experiment: Raf1-KRAS G12V-GppNHP disruption HTRF assay (Biological Example 1). The class given is binding. Conditions: KRAS G12V, GppNHp-loaded; Table 11. The protocol:
as §1, §2, §3, §4, §5

The target of experiment [4] is T4, Avi-KRAS WT (1-169) GppNHp/RAF1 RBD-3xFLAG (52-151) (Homo sapiens, UniProt P01116).
T4 construct: Avi-KRAS WT (1-169)
T4 sequence (P01116 1-169 isoform P01116-2): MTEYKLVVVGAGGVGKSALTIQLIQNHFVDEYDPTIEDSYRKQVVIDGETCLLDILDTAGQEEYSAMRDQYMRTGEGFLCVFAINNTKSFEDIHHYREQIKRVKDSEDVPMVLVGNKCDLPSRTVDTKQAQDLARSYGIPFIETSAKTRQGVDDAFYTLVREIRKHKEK
The experiment is described as follows: Raf1-KRAS WT-GppNHP disruption HTRF assay (Biological Example 1). The class given is binding. As to conditions: KRAS WT, GppNHp-loaded; Table 11. As for the experimental part:
as §1, §2, §3, §4, §5

The subject of a further experiment is GP2d cells (KRAS G12D). The experiment is described as follows: Cell-based pERK HTRF assay in GP2d cell (Biological Example 2). Conditions: GP2d (KRAS G12D) cells, pERK HTRF. The protocol: A pERK assay (Perkin Elmer) was used to determine the effectiveness of compounds in disrupting KRAS G12D protein/effector signaling in cells.
On Day 1, cells (GP2d) were seeded into 96-well plates at 3×10^4 cells/well in 80 μL complete growth media (DMEM, 10% FBS).
On Day 2, cells were treated with compounds at 0.25% DMSO. The source plate was created with compounds diluted in media at 5-fold the final assay concentration. The compounds were run in a 9-point concentration curve starting at 1 μM or in a 9-point concentration curve starting at 100 nM, with a half-log dilution between concentrations. Twenty μL was transferred onto the cell plates (final volume in wells was 100 μL). Plates were harvested after 60 min incubation by aspirating media and adding kit-supplied 1x supplemented lysis buffer to all wells (50 μL per well). Plates were then placed on a plate shaker and incubated at 850 rpm for an additional 30 min.
Antibody mixture solution was prepared by diluting aliquoted d2 and Eu Cryptate antibodies 1:20 in kit supplied detection buffer, and mixing the diluted antibodies solutions (1:1 v:v).
Samples were homogenized by pipetting up and down and then transferred (16 μL of cell lysates) from the 96-well cell culture plate to two wells of the HTRF 384-well detection plate containing the antibody solution. Plates were centrifuged (524 g for 1 min) and allowed to incubate between 4 and 24 h at room temperature. Maximum signal is reached after 4 h incubation time and remains stable over a period of 24 hours. Therefore, readings can be made between 4 and 24 h of incubation. Plates were centrifuged again (524 g for Imin), then analyzed on the EnVision plate reader using the following settings: Excitation 320 nm, Bandwidth 75 nm; Emission 615 nm, Bandwidth 85 nm; Gain 100%; Flashes 100; Lag 60 μs.

T3 sequence (P01116 1-169 isoform P01116-2 G12V): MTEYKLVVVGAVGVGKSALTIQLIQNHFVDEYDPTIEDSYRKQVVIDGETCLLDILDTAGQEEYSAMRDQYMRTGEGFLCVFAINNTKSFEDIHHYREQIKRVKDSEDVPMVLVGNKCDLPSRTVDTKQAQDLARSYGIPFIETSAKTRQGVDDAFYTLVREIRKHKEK
T1 sequence (P01116 1-169 isoform P01116-2 G12D): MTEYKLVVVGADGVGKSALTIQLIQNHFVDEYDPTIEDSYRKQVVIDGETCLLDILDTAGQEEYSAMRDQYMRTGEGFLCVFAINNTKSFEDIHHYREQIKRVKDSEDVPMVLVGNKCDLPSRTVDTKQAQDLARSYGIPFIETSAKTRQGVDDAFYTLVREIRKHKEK

For orientation: IC50 means the midpoint of a concentration-inhibition curve. Read a high IC50 as a need for much substance. Take `CCC(=O)N1C[C@H](C)N(c2nc(OC[C@@]34CCCN3C[C@H](F)C4)nc3c(F)c(-c4ccc(F)c5sc(N)c(C#N)c45)c(C(F)(F)F)cc23)C[C@H]1C` (atropisomer, axis not shown) [Compound 99]: the IC50 in experiment [1] is 1000 to 10000 nM; in experiment [2] it was 1000 to 10000 nM; in experiment [3], greater than 10000 nM; in experiment [4] it was 1000 to 10000 nM; with GP2d cells (KRAS G12D) (GP2d) it was less than 100 nM.

For `CN(c1nc(OC[C@@]23CCCN2C[C@H](F)C3)nc2c(F)c(-c3ccc(F)c4sc(N)c(C#N)c34)c(C(F)(F)F)cc12)[C@@H]1CCN(C(=O)CC#N)C1` (atropisomer, axis not shown) [Compound 103], the IC50 in experiment [1] was 100 to 1000 nM; in experiment [2], 100 to 1000 nM; in experiment [3], 100 to 1000 nM; in experiment [4] it was 100 to 1000 nM; with GP2d cells (KRAS G12D) (GP2d), less than 100 nM.

For the compound `CN(c1nc(OC[C@@]23CCCN2C[C@H](F)C3)nc2c(F)c(-c3ccc(F)c4sc(N)c(C#N)c34)c(C(F)(F)F)cc12)[C@H]1C[C@@H](O)C1` (single isomer, unassigned) [Compound 20], the IC50 lay within 1000 to 10000 nM in experiment [1]; 1000 to 10000 nM in experiment [2]; 1000 to 10000 nM in experiment [3]; 1000 to 10000 nM in experiment [4]; 100 to 1000 nM in the experiment with GP2d cells (KRAS G12D) (GP2d).

As for `CCN(C)c1nc(OC[C@@]23CCCN2C[C@H](F)C3)nc2c(F)c(-c3ccc(F)c4sc(N)c(C#N)c34)c(C(F)(F)F)cc12` (single isomer, unassigned) [Compound 197], the IC50 was greater than 10000 nM in experiment [1]; greater than 10000 nM in experiment [2]; greater than 10000 nM in experiment [3]; greater than 10000 nM in experiment [4]; greater than 1000 nM in the experiment with GP2d cells (KRAS G12D).

For `CN(c1nc(OC[C@@]23CCCN2C[C@H](F)C3)nc2c(F)c(-c3ccc(F)c4sc(N)c(C#N)c34)c(C(F)(F)F)cc12)[C@H]1C[C@@H](O)C1` [Compound 18, 2-amino-7-fluoro-4-(8-fluoro-2-(((2R,7aS)-2-fluorotetrahydro-1H-pyrrolizin-7a(5H)-yl)methoxy)-4-(((1s,3R)-3-hydroxycyclobutyl)(methyl)amino)-6-(trifluoromethyl)quinazolin-7-yl)benzo[b]thiophene-3-carbonitrile], the IC50 in experiment [1] was less than 100 nM; in experiment [2], 100 to 1000 nM; in experiment [3] it was 100 to 1000 nM; in experiment [4] it was less than 100 nM; in the experiment with GP2d cells (KRAS G12D) (GP2d), less than 100 nM.

For the compound `CN(c1nc(OC[C@@]23CCCN2C[C@H](F)C3)nc2c(F)c(-c3ccc(F)c4sc(N)c(C#N)c34)c(C(F)(F)F)cc12)C1CCC1` [Compound 22], the IC50 in experiment [1] is 100 to 1000 nM; in experiment [2] it was 100 to 1000 nM; in experiment [3] it was 100 to 1000 nM; in experiment [4], 100 to 1000 nM; in the experiment on GP2d cells (KRAS G12D) (GP2d), less than 100 nM.

On to `CN(c1nc(OC[C@@]23CCCN2C[C@H](F)C3)nc2c(F)c(-c3ccc(F)c4sc(N)c(C#N)c34)c(C(F)(F)F)cc12)[C@H]1C[C@H](O)C1` [Compound 23], for which the IC50 in experiment [1] was 100 to 1000 nM; in experiment [2] it was 100 to 1000 nM; in experiment [3], 100 to 1000 nM; in experiment [4], 100 to 1000 nM; with GP2d cells (KRAS G12D) (GP2d), less than 100 nM.

As for `CN(c1nc(OC[C@@]23CCCN2C[C@H](F)C3)nc2c(F)c(-c3ccc(F)c4sc(N)c(C#N)c34)c(Cl)cc12)[C@H]1C[C@@H](O)C1` [Compound 24], the IC50 is 100 to 1000 nM in experiment [1]; 100 to 1000 nM in experiment [2]; 100 to 1000 nM in experiment [3]; 100 to 1000 nM in experiment [4]; less than 100 nM with GP2d cells (KRAS G12D) (GP2d).

Consider `CN(c1nc(OCC23CCCN2CCC3)nc2c(F)c(-c3ccc(F)c4sc(N)c(C#N)c34)c(C(F)(F)F)cc12)[C@H]1C[C@@H](O)C1` [Compound 25], for which the IC50 (in experiment [1]; in experiment [2]; in experiment [3]; in experiment [4]; in the experiment with GP2d cells (KRAS G12D) (GP2d)) was less than 100 nM throughout.

On to `CCN(c1nc(OC[C@@]23CCCN2C[C@H](F)C3)nc2c(F)c(-c3ccc(F)c4sc(N)c(C#N)c34)c(C(F)(F)F)cc12)[C@H]1C[C@@H](O)C1` [Compound 26, 2-amino-4-[4-[ethyl-(3-hydroxycyclobutyl)amino]-8-fluoro-2-[[(2R,8S)-2-fluoro-1,2,3,5,6,7-hexahydropyrrolizin-8-yl]methoxy]-6-(trifluoromethyl)quinazolin-7-yl]-7-fluoro-benzothiophene-3-carbonitrile], for which the concentration for half-maximal inhibition (IC50) in experiment [1] was less than 100 nM; in experiment [2] it was 100 to 1000 nM; in experiment [3] it was 100 to 1000 nM; in experiment [4] it was 100 to 1000 nM; in the experiment with GP2d cells (KRAS G12D) (GP2d), less than 100 nM.

Turning to `CO[C@H]1C[C@@H](N(C)c2nc(OC[C@@]34CCCN3C[C@H](F)C4)nc3c(F)c(-c4ccc(F)c5sc(N)c(C#N)c45)c(C(F)(F)F)cc23)C1` [Compound 27], the IC50 is 100 to 1000 nM in experiment [1]; 100 to 1000 nM in experiment [2]; 1000 to 10000 nM in experiment [3]; 100 to 1000 nM in experiment [4]; less than 100 nM in the experiment with GP2d cells (KRAS G12D) (GP2d).

In the case of `CN(c1nc(OC[C@@]23CCCN2C[C@H](F)C3)nc2c(F)c(-c3ccc(F)c4sc(N)c(C#N)c34)ccc12)[C@H]1C[C@@H](O)C1` [Compound 28], the IC50 in experiment [1] lay within 100 to 1000 nM; in experiment [2], 1000 to 10000 nM; in experiment [3], 1000 to 10000 nM; in experiment [4] it was 100 to 1000 nM; in the experiment with GP2d cells (KRAS G12D) (GP2d) it was 100 to 1000 nM.

With `CN(c1nc(OC[C@@]23CCCN2C[C@H](F)C3)nc2cc(-c3ccc(F)c4sc(N)c(C#N)c34)c(C#N)cc12)[C@H]1C[C@@H](O)C1` [Compound 29], the IC50 was in the range of 1000 to 10000 nM in experiment [1]; 1000 to 10000 nM in experiment [2]; 1000 to 10000 nM in experiment [3]; 1000 to 10000 nM in experiment [4]; 100 to 1000 nM in the experiment on GP2d cells (KRAS G12D) (GP2d).

Regarding `CN(c1nc(OC[C@@]23CCCN2C[C@H](F)C3)nc2c(C#N)c(-c3ccc(F)c4sc(N)c(C#N)c34)c(Cl)cc12)[C@H]1C[C@@H](O)C1` [Compound 30, 7-(2-amino-3-cyano-7-fluorobenzo[b]thiophen-4-yl)-6-chloro-2-(((2R,7aS)-2-fluorotetrahydro-1H-pyrrolizin-7a(5H)-yl)methoxy)-4-(((1s,3R)-3-hydroxycyclobutyl)(methyl)amino)quinazoline-8-carbonitrile], the IC50 (in experiment [1]; in experiment [2]; in experiment [3]; in experiment [4]; in the experiment with GP2d cells (KRAS G12D) (GP2d)) was 100 to 1000 nM in each case.

`CN(c1nc(OC[C@@]23CCCN2C[C@H](F)C3)nc2c(F)c(-c3ccc(F)c4sc(N)c(C#N)c34)c(C(F)(F)F)cc12)[C@H]1C[C@@](C)(O)C1` [Compound 31, 2-amino-7-fluoro-4-(8-fluoro-2-(((2R,7aS)-2-fluorotetrahydro-1H-pyrrolizin-7a(5H)-yl)methoxy)-4-(((1s,3R)-3-hydroxy-3-methylcyclobutyl)(methyl)amino)-6-(trifluoromethyl)quinazolin-7-yl)benzo[b]thiophene-3-carbonitrile]: the IC50 is 100 to 1000 nM in experiment [1]; 100 to 1000 nM in experiment [2]; 1000 to 10000 nM in experiment [3]; 100 to 1000 nM in experiment [4]; less than 100 nM in the experiment on GP2d cells (KRAS G12D) (GP2d).

Take `Nc1nc2c(-c3c(C(F)(F)F)cc4c(N[C@H]5CC[C@@H](O)CC5)nc(OCC56CCCN5CCC6)nc4c3F)ccc(F)c2s1` [Compound 64]: the IC50 in experiment [1], in experiment [2], in experiment [3] and in experiment [4] was 1000 to 10000 nM each time.

For the compound `Nc1nc2c(-c3c(C(F)(F)F)cc4c(NC[C@@H]5CC[C@H](CO)C5)nc(OCC56CCCN5CCC6)nc4c3F)ccc(F)c2s1` [Compound 68], the IC50 is greater than 10000 nM in experiment [1], greater than 10000 nM in experiment [2], 1000 to 10000 nM in experiment [3] and greater than 10000 nM in experiment [4].
